Measured values reported in patent US8735141B2, “Vermiculture compositions” (M-I L.L.C., priority 2001, dated 2014).

What was measured:
[1] = Toxicity of various base fluids, overall rank; conditions: 1 = least toxic
Protocol: (§1) Environmental tests were carried out on the base fluids, several muds, and a few samples of mud-coated cuttings before and after treatment in a bioreactor. The tests consisted of the following: (a) biodegradability (respiration rate and hydrocarbon loss in a reference moist soil); (b) phytoxicity (alfalfa seed emergence and root elongation); (c) earthworm survival; (d) springtail survival; and (e) Microtox (IC-50 on bioluminescent bacterium Photobacterium phosporeum).
One of skill in the art will appreciate that the results of Table 1 indicate that diesel and the branched paraffins are more resistant to rapid biodegradation than the other four fluids.

alfalfa = assay: Alfalfa phytotoxicity (seed emergence, root elongation, shoot mass); assay type: in vivo; conditions: base fluids; normalized to Control test values of 100
Protocol: as §1
Alfalfa seed emergence and root elongation.

[2] = system: Earthworms (Esenia fetida); assay: Earthworm survival; assay type: in vivo; conditions: base fluids
Protocol: as §1
Earthworms (Esenia fetida) toxicity

[3] = Biodegradability (respiration rate and hydrocarbon loss in a reference moist soil); conditions: base fluids, 1 = most biodegradable
Protocol: as §1
Biodegradability and toxicity of Formulations A and N are contrasted with those of typical diesel/CaCl2/barite fluid in Table 4. The leading rate on the test soil in Table 4 was 6% w/w. […] In comparing formulation A with a similar formulation weighted with barite (instead of hematite), biodegradability and toxicity appear to be similar for the two fluids. However, a soil-enhancing iron source is considered desirable for its long-term potential benefits.
Biodegradability (Respiration rate and hydrocarbon loss in moist soil.)

Isomerized tetradecene [Isomerized tetradecene C14 (IO)]
Toxicity Rank [1]: 4 | Alfalfa Phytotoxicity % Root Elongation (alfalfa): 144% | Alfalfa Phytotoxicity % Seed Emergence (alfalfa): 101% | Animal Toxicity % Earthworm Survival [2]: 100% | Biodegradability Rank [3]: 4
